# From patent US12552824B2, “C-mannoside compounds useful for the treatment of urinary tract infections” (GLAXOSMITHKLINE INTELLECTUAL PROPERTY DEVELOPMENT LIMITED, priority 2018, dated 2026)
# Molecular target: T1, FimH (Escherichia coli, UniProt Q1R2J4)
# T1 construct: endogenous in cells; host or cells: E. coli UTI89 whole bacteria, agglutinating guinea pig red blood cells
# Assay type: cell-based
# Conditions: concentration reducing bacterial agglutination of guinea pig red blood cells by greater than 90%; UTI89 bacteria
# Procedure: Hemagglutination Inhibition Assay (HAI)
# The hemagglutination inhibition (HAI) assay was performed with UTI89 bacteria and guinea pig red blood cells, as previously described (S. J. Hultgren, W. R. Schwan, A. J. Schaeffer, J. L. Duncan Infect. Immun. 1986, 54, 613-620 and Jarvis, C.; Han, Z.; Kalas, V.; Klein, R.; Pinkner, J. S.; Ford, B.; Binkley, J.; Cusumano, C. K.; Cusumano, Z.; Mydock-McGrane, L.; Hultgren, S. J.; Janetka, J. W., ChemMedChem 2016, 11, 367-373).
# 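Also: concentration in nM.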
row,Compound,HAI titer EC > 90
1,Cc1cc(-c2cc(F)c(C(C)O)c(F)c2)ccc1C(O)C1OC(CO)C(O)C(O)C1O (mixture of isomers) [Example 95],“++++” (<50 “++++”)
2,"Cc1cc(-c2cc(F)c(C(C)O)c(F)c2)ccc1[C@@H](O)[C@H]1O[C@H](CO)[C@@H](O)[C@H](O)[C@@H]1O (single isomer, unassigned) [Example 107]",“++++” (<50 “++++”)
3,"Cc1cc(-c2cc(F)c(C(C)O)c(F)c2)ccc1[C@@H](O)[C@H]1O[C@H](CO)[C@@H](O)[C@H](O)[C@@H]1O (single isomer, unassigned) [Example 108]",“++++” (<50 “++++”)
4,Cc1cc(-c2cc(Cl)ccc2OC(C)C)ccc1[C@@H](O)[C@H]1O[C@H](CO)[C@@H](O)[C@H](O)[C@@H]1O [Example 10],“++++” (<50 “++++”)
5,Cc1cc(-c2cc(C)c(Cl)c(C)c2)ccc1[C@@H](O)[C@H]1O[C@H](CO)[C@@H](O)[C@H](O)[C@@H]1O [Example 12],“+++” (50-200 “+++”)
6,Cc1cc(-c2ccc([C@@H](O)[C@H]3O[C@H](CO)[C@@H](O)[C@H](O)[C@@H]3O)c(C)c2)cc(C(C)(C)C)c1 [Example 14],“+++” (50-200 “+++”)
7,Cc1cc(-c2cc(F)ccc2F)ccc1[C@@H](O)[C@H]1O[C@H](CO)[C@@H](O)[C@H](O)[C@@H]1O [Example 17],“+++” (50-200 “+++”)
8,Cc1cc(-c2cccc(F)c2F)ccc1[C@@H](O)[C@H]1O[C@H](CO)[C@@H](O)[C@H](O)[C@@H]1O [Example 18],“+++” (50-200 “+++”)
9,Cc1cc(-c2cc(Cl)c(Cl)cc2O)ccc1[C@@H](O)[C@H]1O[C@H](CO)[C@@H](O)[C@H](O)[C@@H]1O [Example 19],“++++” (<50 “++++”)
10,COc1cc(Cl)c(Cl)cc1-c1ccc([C@@H](O)[C@H]2O[C@H](CO)[C@@H](O)[C@H](O)[C@@H]2O)c(C)c1 [Example 20],“++++” (<50 “++++”)
11,Cc1cc(-c2cc(F)cc(Cl)c2)ccc1[C@@H](O)[C@H]1O[C@H](CO)[C@@H](O)[C@H](O)[C@@H]1O [Example 22],“++++” (<50 “++++”)
12,Cc1cc(-c2ccc(F)c(F)c2)ccc1[C@@H](O)[C@H]1O[C@H](CO)[C@@H](O)[C@H](O)[C@@H]1O [Example 23],“+++” (50-200 “+++”)
13,Cc1cc(-c2ccc(F)c(C(F)(F)F)c2)ccc1[C@@H](O)[C@H]1O[C@H](CO)[C@@H](O)[C@H](O)[C@@H]1O [Example 25],“++++” (<50 “++++”)
14,Cc1cc(-c2cc(Cl)cc(C(F)(F)F)c2)ccc1[C@@H](O)[C@H]1O[C@H](CO)[C@@H](O)[C@H](O)[C@@H]1O [Example 26],“++++” (<50 “++++”)
15,COc1cc(-c2ccc([C@@H](O)[C@H]3O[C@H](CO)[C@@H](O)[C@H](O)[C@@H]3O)c(C)c2)ccc1F [Example 27],“+++” (50-200 “+++”)
16,Cc1cc(-c2ccc(OC(F)(F)F)c(F)c2)ccc1[C@@H](O)[C@H]1O[C@H](CO)[C@@H](O)[C@H](O)[C@@H]1O [Example 28],“+” (>1000 “+”)
17,OC[C@H]1O[C@H]([C@H](O)c2ccc(-c3cc(F)cc(F)c3)cc2Cl)[C@@H](O)[C@@H](O)[C@@H]1O [Example 29],“+++” (50-200 “+++”)
18,Cc1cc(-c2ccc(Cl)c(C(F)(F)F)c2)ccc1[C@@H](O)[C@H]1O[C@H](CO)[C@@H](O)[C@H](O)[C@@H]1O [Example 30],“++++” (<50 “++++”)
19,Cc1cc(-c2ccc(F)c(OC(F)(F)F)c2)ccc1[C@@H](O)[C@H]1O[C@H](CO)[C@@H](O)[C@H](O)[C@@H]1O [Example 31],“+++” (50-200 “+++”)
20,COc1cc(OC)cc(-c2ccc([C@@H](O)[C@H]3O[C@H](CO)[C@@H](O)[C@H](O)[C@@H]3O)c(C)c2)c1 [Example 33],“++++” (<50 “++++”)
21,COc1cc(-c2ccc([C@@H](O)[C@H]3O[C@H](CO)[C@@H](O)[C@H](O)[C@@H]3O)c(C)c2)cc(F)c1F [Example 34],“++++” (<50 “++++”)
22,COc1c(F)cc(-c2ccc([C@@H](O)[C@H]3O[C@H](CO)[C@@H](O)[C@H](O)[C@@H]3O)c(C)c2)cc1F [Example 35],“++++” (<50 “++++”)
23,Cc1cc(-c2cc(F)cc(OC(F)(F)F)c2)ccc1[C@@H](O)[C@H]1O[C@H](CO)[C@@H](O)[C@H](O)[C@@H]1O [Example 36],“++++” (<50 “++++”)
24,Cc1cc(-c2cc(F)cc(F)c2)cc(F)c1[C@@H](O)[C@H]1O[C@H](CO)[C@@H](O)[C@H](O)[C@@H]1O [Example 37],“++++” (<50 “++++”)
25,Cc1cc(-c2ccc(C3CC3)c(F)c2)ccc1[C@@H](O)[C@H]1O[C@H](CO)[C@@H](O)[C@H](O)[C@@H]1O [Example 38],“+++” (50-200 “+++”)
26,COc1cc(-c2ccc([C@@H](O)[C@H]3O[C@H](CO)[C@@H](O)[C@H](O)[C@@H]3O)c(C)c2)cc(OC)c1F [Example 39],“++++” (<50 “++++”)

row,Compound,HAI titer EC > 90
1,Cc1cc(-c2ccc([C@@H](O)[C@H]3O[C@H](CO)[C@@H](O)[C@H](O)[C@@H]3O)c(C)c2)c(F)cc1Cl [Example 40],“+++” (50-200 “+++”)
2,Cc1cc(-c2ccc(C(F)(F)F)c(Cl)c2)ccc1[C@@H](O)[C@H]1O[C@H](CO)[C@@H](O)[C@H](O)[C@@H]1O [Example 41],“++++” (<50 “++++”)
3,Cc1cc(-c2ccc(C(F)(F)F)cc2F)ccc1[C@@H](O)[C@H]1O[C@H](CO)[C@@H](O)[C@H](O)[C@@H]1O [Example 42],“+++” (50-200 “+++”)
4,Cc1cc(-c2cc(OC(F)(F)F)ccc2F)ccc1[C@@H](O)[C@H]1O[C@H](CO)[C@@H](O)[C@H](O)[C@@H]1O [Example 43],“+++” (50-200 “+++”)
5,Cc1cc(-c2cc(Cl)ccc2F)ccc1[C@@H](O)[C@H]1O[C@H](CO)[C@@H](O)[C@H](O)[C@@H]1O [Example 44],“+++” (50-200 “+++”)
6,Cc1cc(F)c(-c2ccc([C@@H](O)[C@H]3O[C@H](CO)[C@@H](O)[C@H](O)[C@@H]3O)c(C)c2)cc1F [Example 45],“++++” (<50 “++++”)
7,Cc1cc(-c2cc(C(F)(F)F)ccc2F)ccc1[C@@H](O)[C@H]1O[C@H](CO)[C@@H](O)[C@H](O)[C@@H]1O [Example 46],“+++” (50-200 “+++”)
8,Cc1cc(-c2cc(F)c(Cl)cc2F)ccc1[C@@H](O)[C@H]1O[C@H](CO)[C@@H](O)[C@H](O)[C@@H]1O [Example 47],“++++” (<50 “++++”)
9,Cc1cc(-c2cc(Cl)c(F)cc2F)ccc1[C@@H](O)[C@H]1O[C@H](CO)[C@@H](O)[C@H](O)[C@@H]1O [Example 48],“+++” (50-200 “+++”)
10,Cc1cc(-c2ccc(C(F)(F)F)c(F)c2F)ccc1[C@@H](O)[C@H]1O[C@H](CO)[C@@H](O)[C@H](O)[C@@H]1O [Example 49],“+++” (50-200 “+++”)
11,Cc1cc(Cl)c(-c2ccc([C@@H](O)[C@H]3O[C@H](CO)[C@@H](O)[C@H](O)[C@@H]3O)c(C)c2)cc1F [Example 50],“+++” (50-200 “+++”)
12,Cc1cc(-c2cc(F)cc(OC3CC3)c2)ccc1[C@@H](O)[C@H]1O[C@H](CO)[C@@H](O)[C@H](O)[C@@H]1O [Example 51],“++++” (<50 “++++”)
13,OC[C@H]1O[C@H]([C@H](O)c2c(F)cc(-c3cc(F)cc(F)c3)cc2Cl)[C@@H](O)[C@@H](O)[C@@H]1O [Example 52],“+++” (50-200 “+++”)
14,Cc1cc(-c2cc(F)c(C3CC3)c(F)c2)ccc1[C@@H](O)[C@H]1O[C@H](CO)[C@@H](O)[C@H](O)[C@@H]1O [Example 53],“++++” (<50 “++++”)
15,Cc1cc(-c2cc(C3CC3)ccc2F)ccc1[C@@H](O)[C@H]1O[C@H](CO)[C@@H](O)[C@H](O)[C@@H]1O [Example 54],“+++” (50-200 “+++”)
16,Cc1cc(-c2cc(Cl)ccc2OC(F)(F)F)ccc1[C@@H](O)[C@H]1O[C@H](CO)[C@@H](O)[C@H](O)[C@@H]1O [Example 55],“+++” (50-200 “+++”)
17,Cc1cc(-c2cc(Cl)c(C3CC3)cc2F)ccc1[C@@H](O)[C@H]1O[C@H](CO)[C@@H](O)[C@H](O)[C@@H]1O [Example 56],“+++” (50-200 “+++”)
18,Cc1ccc(-c2ccc([C@@H](O)[C@H]3O[C@H](CO)[C@@H](O)[C@H](O)[C@@H]3O)c(C)c2)cc1F [Example 57],“+++” (50-200 “+++”)
19,COc1cc(F)cc(-c2ccc([C@@H](O)[C@H]3O[C@H](CO)[C@@H](O)[C@H](O)[C@@H]3O)c(C(F)(F)F)c2)c1 [Example 58],“++++” (<50 “++++”)
20,OC[C@H]1O[C@H]([C@H](O)c2ccc(-c3cc(F)cc(C(F)(F)F)c3)cc2C(F)(F)F)[C@@H](O)[C@@H](O)[C@@H]1O [Example 59],“++++” (<50 “++++”)
21,Cc1cc(F)cc(-c2ccc([C@@H](O)[C@H]3O[C@H](CO)[C@@H](O)[C@H](O)[C@@H]3O)c(C)c2)c1 [Example 60],“+++” (50-200 “+++”)
22,Cc1cc(-c2cc(F)cc(C3CC3)c2)ccc1[C@@H](O)[C@H]1O[C@H](CO)[C@@H](O)[C@H](O)[C@@H]1O [Example 62],“+++” (50-200 “+++”)
23,COc1cc(-c2ccc([C@@H](O)[C@H]3O[C@H](CO)[C@@H](O)[C@H](O)[C@@H]3O)c(C)c2)cc(F)c1C [Example 63],“++++” (<50 “++++”)
24,COc1cc(C)cc(-c2ccc([C@@H](O)[C@H]3O[C@H](CO)[C@@H](O)[C@H](O)[C@@H]3O)c(C)c2)c1 [Example 65],“+++” (50-200 “+++”)
25,Cc1cc(-c2ccc(C(F)(F)F)c(C)c2)ccc1[C@@H](O)[C@H]1O[C@H](CO)[C@@H](O)[C@H](O)[C@@H]1O [Example 66],“++++” (<50 “++++”)
